Here are results for 4 compounds from US12128099B2 (priority 2018, dated 2024).

The subject of one data set is THP-1 SAMD9 KD cells. It counts as cell-based, human. To be noted: FIGS. 15A-15D, 16C.
Data set [1] has as its system OC patient ascites-associated CD14+ monocytes.
The subject of another data set is OvCa-26. The experiment in a line: cells. It counts as cell-based, human. The following applies: read-out: calculated IC50.
A further data set relates to OvCa-2a. The experiment in a line: cells. It counts as cell-based, human. To be noted: read-out: calculated IC50.
In the next data set the test system is SKOV3. Kind of data set: cells. It counts as cell-based, human.
The next data set concerns murine OC ID8 cells. The data set is classed as cell-based.
The test system of a further data set is ID8 disseminated tumor. Further details: species or system mice. The following applies: mouse, in vivo.
In data set [2] the test system is primary OC cells (OvCa-2a and OvCa-26). It counts as cell-based, human.

Molecules are shown by their SMILES. Where “and” joins values, the source holds several entries; their conditions need not be identical. Equal values may be shown once. Read-outs that look alike come from different tables or passages of the source.

In the case of `Nc1nc2c(ncn2[C@@H]2O[C@@H]3COP(=O)(O)O[C@H]4[C@@H](O)[C@H](n5cnc6c(N)ncnc65)O[C@@H]4COP(=O)(O)O[C@@H]2[C@@H]3O)c(=O)[nH]1` [2′3′-cGAMP], the “IFNβ / ISG mRNA in SAMD9 KD cells versus control cells” value with THP-1 SAMD9 KD cells is given as “comparably to control cells”.
Turning to `O=[N+]([O-])c1ccc2c(c1)S(=O)(=O)C=C2` [Stattic], in data set [1], the IL-8 level result is “unchanged levels of IL-8”; the “cytokine secretion (IL-10, IL-6)” value is “suppressive effect in cytokine secretion”; the toxicity entry is recorded as “did not cause noticeable toxicity”.
Take `N.N.[Cl][Pt][Cl]` [cisplatin]: the IC50 with OvCa-26 is 11.4 µM; in the data set on OvCa-2a, 3.6 µM; with SKOV3 (read-out: IC50), 8.4 µM; with murine OC ID8 cells, 2 µM. The Median survival in the data set on ID8 disseminated tumor was 113 days and 127 days. This compound displayed a median survival time with ID8 disseminated tumor of 90 days. The compound also returned a survival in the data set with ID8 disseminated tumor of 40%. The “growth inhibition, drug treatment alone” value in [2] is recorded as “did not observe significant growth inhibition”. Further, in the data set on MYXV, the “MYXV DNA replication” value is on record as “inhibits DNA replication of MYXV”.
In the case of `Nc1ccn([C@@H]2O[C@H](CO)[C@@H](O)C2(F)F)c(=O)n1` [gemcitabine], the IC50 in the data set with OvCa-26 (Homo sapiens) was 14.6 µM; with OvCa-2a (Homo sapiens) it was 960 µM; in the data set on SKOV3 (Homo sapiens, SK-OV-3), 9.32 µM. This compound also gave a median survival time with ID8 disseminated tumor of 78 days. The “therapeutic benefit, single-agent treatment given late” value in the data set with ID8 disseminated tumor is listed as “did not lead to significant therapeutic benefit”. Also, in [2], the “growth inhibition, drug treatment alone” value was “did not observe significant growth inhibition”.
